The nature of one data set: in vitro. The settings on record: PAMPA. From the text:
Supporting Information Table 1.
artificial membrane permeability assay (PAMPA) as described previously (reference). The apparent permeability
(ranitidine, nadolol, hydrochlorothiazide).
Data are mean ± S.D. (n=3).
Reference: Oh, M.H., Lee, H.J., Jo, S.H., et al. Development of Cassette PAMPA for Permeability Screening. Biol Pharm
A general note: PAMPA measures passive passage across an artificial lipid membrane.

In a further data set the test system is hIP6K2. The settings on record: read-out: IC50 value of quercetin (IP6K2), reported; different IP6K2 enzyme concentration and reaction temperature; cited from earlier work.
A further data set concerns the target T1, human IP6K3 (Homo sapiens, UniProt Q96PC2).
T1 construct: made in house; host or cells: Sf9 insect cells (baculovirus, pFASTBAC1)
Briefly: ADP-Glo kinase assay, IP6K3 (Liao et al.'s conditions). The format is biochemical. As to conditions: for IC50: IP6K3 120 nM, ATP 1 mM. As to the method: (§1) Inhibition activity of the synthesised compounds against IP6K2 was assessed using ADP-Glo™ Kinase Assay (Promega). Kinase reaction mixtures were first shaking-incubated with individual drugs (diluted in DMSO) for pre-incubation at RT for 15 min, and then ATP was added (final 10 µM) to initiate the reaction. 20 ng of recombinant human IP6K2 protein was used per 15 µL of IP6K2 reaction mixture (50 mM Tris-HCl, pH 6.8, 10 mM MgCl2, 2.5 mM DTT, 0.02% Triton X-100, 10 µM IP6). […] Each detection set was prepared on 96-well (25 µL kinase reaction) as duplicates. Resulting enzyme activity was calculated as following; Activity (%) = ([ADPexperimental]/[ADPDMSO])×100. For IC50 estimation of compounds, kinase assay was prepared on 384-well plates (20 ng of recombinant human IP6K2 protein was used per 5 µL kinase reaction mixture) as duplicates. The final concentrations for IP6K2, IP6, and ATP were 80 nM, 10 μM, and 10 μM, respectively. […] IP6K1 and IP6K3 assays were performed by Liao et al.’s conditions.[25] The final concentrations for IP6K1, IP6, and ATP were 60 nM, 100 μM, and 1 mM, respectively. […] All statistical analyses including IC50 estimation was performed using Prism 7 or Prism 9 (Graphpad Software).
(§2) Full-length human IP6K1, IP6K2, or IP6K3 cDNA was subcloned into pFASTBAC1 plasmid (Gibco) with an N-terminal FLAG epitope sequence, and baculovirus was generated according to the manufacturer’s instructions. Sf9 insect cells were infected with baculovirus and incubated for 72 h. The cells were resuspended in lysis buffer [20 mM Tris–HCl (pH 7.9), 500 mM NaCl, 4 mM MgCl2, 0.4 mM EDTA, 2 mM DTT, 20% glycerol, 1 mM PMSF, and protease inhibitor cocktail (Roche)] and then disrupted with a Dounce homogeniser (pestle A, 3 series of 10 strokes with 10 min interval).
Background: ADP-Glo turns the ADP formed in a reaction into a luminescent signal.

The target in another data set is T2, human IP6K1 (Homo sapiens, UniProt Q92551).
T2 construct: made in house; host or cells: Sf9 insect cells (baculovirus, pFASTBAC1)
The experiment in a line: ADP-Glo kinase assay, IP6K1 (Liao et al.'s conditions). As to conditions: for IC50: IP6K1 60 nM, ATP 1 mM. It is filed as biochemical. As to the method: as §1, §2

The target in a further data set is T3, recombinant human IP6K2 (Homo sapiens, UniProt Q9UHH9).
T3 construct: made in house; host or cells: Sf9 insect cells (baculovirus, pFASTBAC1)
T3 sequence (Q9UHH9 1-426): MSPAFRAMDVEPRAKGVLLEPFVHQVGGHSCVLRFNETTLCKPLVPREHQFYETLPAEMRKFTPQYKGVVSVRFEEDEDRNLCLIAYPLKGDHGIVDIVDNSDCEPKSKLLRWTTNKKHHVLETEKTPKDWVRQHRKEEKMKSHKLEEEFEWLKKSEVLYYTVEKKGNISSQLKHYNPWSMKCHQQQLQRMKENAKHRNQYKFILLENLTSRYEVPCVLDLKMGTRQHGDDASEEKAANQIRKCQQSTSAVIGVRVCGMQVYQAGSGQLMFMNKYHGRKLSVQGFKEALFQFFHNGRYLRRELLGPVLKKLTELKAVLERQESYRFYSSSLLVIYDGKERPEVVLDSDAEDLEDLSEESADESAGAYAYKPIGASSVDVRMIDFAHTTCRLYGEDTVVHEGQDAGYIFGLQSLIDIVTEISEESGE
Briefly: ADP-Glo kinase assay, IP6K2. It is filed as biochemical. As to the method:
as §1, §2

Data set [1] relates to IP7 synthesis in human colorectal cell line (HCT116). The experiment in a line: cellular IP7 synthesis in HCT116, HPLC of [3H]inositol-labelled inositol phosphates. It is filed as cell-based. As to conditions: HCT116, compound 10 μM for 6 h.
Protocol: For HPLC analysis, 2 × 10^5 cells/60 mm dish of HCT116 were treated with 60 μCi [^3H] myo-inositol (NET1177001MC, PerkinElmer). After 3 days, soluble inositol polyphosphates from HCT116 (human colorectal cancer cell line) were extracted and analysed as previously described.[39] Intracellular inositol phosphates were extracted with acid extraction buffer (1M HClO4, 3 mM EDTA, and 0.1 mg/mL IP6), and neutralised with neutralisation buffer (1M K2CO3 and 3 mM EDTA). The lysates were centrifuged for 10 min, and the soluble fraction was resolved by HPLC as described earlier.[39] The lipid pellet was lysed with 0.1% Triton X-100 in NaOH overnight. […] Quantity of inositol phosphates was presented as total counts/min (CPM) normalised by total lipid contents.
The mark [2] stands for this setting: final concentration of ATP and IP6 adjusted to 10 μM.

Each structure is given as a SMILES string.

These results are taken from publication PMC10075506, “Synthesis and biological evaluation of flavonoid-based IP6K2 inhibitors” (Journal of Enzyme Inhibition and Medicinal Chemistry, 2023).

T2 sequence (Q92551 whole entry): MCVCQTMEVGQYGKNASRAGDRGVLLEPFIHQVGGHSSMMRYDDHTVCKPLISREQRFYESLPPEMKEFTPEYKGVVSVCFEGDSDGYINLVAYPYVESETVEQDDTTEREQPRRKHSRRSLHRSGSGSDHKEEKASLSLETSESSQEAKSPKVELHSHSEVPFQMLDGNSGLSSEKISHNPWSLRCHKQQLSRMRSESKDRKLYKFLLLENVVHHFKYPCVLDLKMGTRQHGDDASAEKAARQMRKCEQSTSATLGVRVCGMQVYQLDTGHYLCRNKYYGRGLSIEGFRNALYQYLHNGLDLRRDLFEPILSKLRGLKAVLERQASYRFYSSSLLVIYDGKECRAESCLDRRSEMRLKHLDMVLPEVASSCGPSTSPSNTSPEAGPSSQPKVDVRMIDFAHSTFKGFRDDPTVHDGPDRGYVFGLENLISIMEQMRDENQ
T1 sequence (Q96PC2 whole entry): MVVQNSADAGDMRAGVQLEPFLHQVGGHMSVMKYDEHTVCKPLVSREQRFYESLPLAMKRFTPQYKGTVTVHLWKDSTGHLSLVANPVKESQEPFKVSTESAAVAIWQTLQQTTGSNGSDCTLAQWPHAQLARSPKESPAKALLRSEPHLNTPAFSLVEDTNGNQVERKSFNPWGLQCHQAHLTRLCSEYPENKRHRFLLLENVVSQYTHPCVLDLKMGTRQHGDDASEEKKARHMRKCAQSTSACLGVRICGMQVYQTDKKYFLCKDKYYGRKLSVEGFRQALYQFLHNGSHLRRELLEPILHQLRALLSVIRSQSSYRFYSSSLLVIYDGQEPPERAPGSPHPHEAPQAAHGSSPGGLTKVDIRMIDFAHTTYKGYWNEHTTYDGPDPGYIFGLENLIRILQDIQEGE

For `COCCc1ccc(OCC(O)CNC(C)C)cc1` (stereo not drawn) [Metoprolol, metoprolol], in “in vitro”, the Papp was 3.45 ± 0.158 ×10⁻⁶ cm/s and the Permeability class result was “High”.

Regarding `CC(C)(C)NCC(O)COc1cccc2c1CC(O)C(O)C2` (stereo not drawn) [Nadolol, nadolol], in the data set “in vitro”, the Papp stood at 0.089 ± 0.007 ×10⁻⁶ cm/s and the Permeability class entry is given as “Low”.

Turning to `O=c1c(O)c(-c2ccc(O)c(O)c2)oc2cc(O)cc(O)c12` [Quercetin, 3,3′,4′,5,7-pentahydroxylflavone], the concentration for half-maximal inhibition (IC50) in the data set on hIP6K2 was […]; on human IP6K3 (IP6 100 µM) it was 4350 nM; against human IP6K1 (IP6 100 µM), 1100 nM. The apparent permeability coefficient (Papp) in “in vitro” worked out at 0.54 ×10⁻⁶ cm/s. Further, in the data set “in vitro”, the Permeability class result is on record as “Low”.

Regarding `NS(=O)(=O)c1cc2c(cc1Cl)NCNS2(=O)=O` [Hydrochlorothiazide, hydrochlorothiazide], in the data set “in vitro”, the apparent permeability (Papp) is less than 0.18 ×10⁻⁶ cm/s and the Permeability class entry was “Low”.

On to `O=C(N[C@H](CO)[C@H](O)c1ccc([N+](=O)[O-])cc1)C(Cl)Cl` [Chloramphenicol, chloramphenicol], for which, in “in vitro”, the apparent permeability (Papp) is 4.67 ± 0.063 ×10⁻⁶ cm/s and the Permeability class result is “High”.

On to `CNC(=C[N+](=O)[O-])NCCSCc1ccc(CN(C)C)o1` [Ranitidine, ranitidine], for which, in “in vitro”, the Papp was less than 0.18 ×10⁻⁶ cm/s and the Permeability class result is given as “Low”.

As to `O=C(O)c1cccc(-c2oc3cc(O)c(O)cc3c(=O)c2O)c1` [Compound 20s, 3–(3,6,7-Trihydroxy-4-oxo-4H-chromen-2-yl)benzoic acid], the IC50 was 550 ± 1 nM at recombinant human IP6K2, 3560 nM at human IP6K3 (IP6 100 µM) and 2870 nM at human IP6K1 (IP6 100 µM). Also, on recombinant human IP6K2 (IC50 compared with quercetin), the “fold more potent IP6K2 inhibition than quercetin” value came out at 5 fold. The “fold more potent than compound 20r (IP6K2)” value on recombinant human IP6K2 (meta -COOH versus para -COOH) is on record as “approximately 7 fold”. In addition, the “cellular IP7 levels” value in data set [1] is reported as “failed to reduce cellular IP7 levels”. Further, the “IP6K3 /IP6K2 (IC50 ratio)” value on human IP6K3 (IP6K3 at ATP 1 mM, IP6 100 µM, IP6K2 at ATP 10 µM, IP6 10 µM) was 6.47. In addition, the “IC50 ratio of IP6K3/IP6K2” value at human IP6K3 (setting [2]) amounted to 2.32 fold. The “IP6K1 /IP6K2 (IC50 ratio)” value on human IP6K1 (IP6K1 at ATP 1 mM, IP6 100 µM, IP6K2 at ATP 10 µM, IP6 10 µM) is reported as 5.22. The “IC50 ratio of IP6K1/IP6K2” value at human IP6K1 (setting [2]) was found to be 4.65 fold. This compound came in with an apparent permeability (Papp) in “in vitro” of less than 0.18 ×10⁻⁶ cm/s. The Permeability class result in the data set “in vitro” is recorded as “Low”.

In general, Papp refers to a coefficient for how fast a substance crosses the barrier. High values mean ready permeation, low ones poor permeation. Usually IC50 stands for the concentration that gives 50% inhibition.
